From patent US7932283B2, “Fungicide N-cyclopropyl-sulfonylamide derivatives” (Bayer Cropscience AG, priority 2006, dated 2011)

Tests used:
[1] = system: Podosphaera leucotricha; assay: In vivo test on Podosphaera leucotricha (apple mildew), preventive spray; conditions: 240 h, apple young plants, evaluated 10 days after inoculation, good (at least 70%) to total protection
Method: In Vivo Test on Podosphaera leucotncha (Apple Mildew) [table] To produce a suitable preparation of active compound, 1 part by weight of active compound is mixed with the stated amounts of solvent and emulsifier, and the concentrate is diluted with water to the desired concentration. Young plants are sprayed with the preparation of active compound at the stated rate of application. After the spray coating has dried on, the plants are inoculated with an aqueous spore suspension of the causal agent of apple mildew (Podosphaera leucobicha). The plants are then placed in a greenhouse at approximately 23° C. and a relative atmospheric humidity of approximately 70%. The test is evaluated 10 days after the inoculation. Under these conditions, good (at least 70%) to total protection is observed at a dose of 100 ppm with the following compounds: 104, 160, 176, 177, 180, 186, 187, 188, 192, 194, 196, 198, 203, 204, 205, 207, 209, 210, 211, 212, 213, 218 and 446.

[2] = system: Erysiphe graminis f.sp. horde; assay: In vivo test on Erysiphe graminis (barley mildew), preventive spray; conditions: Blumeria graminis, 168 h, barley young plants, evaluated 7 days after inoculation, good (at least 70%) to total protection
Method: In Vivo Test on Erysiphe Graminis (Barley Mildew) [table] To produce a suitable preparation of active compound, 1 part by weight of active compound or active compound combination is mixed with the stated amounts of solvent and emulsifier, and the concentrate is diluted with water to the desired concentration. Young plants are sprayed with the preparation of active compound or active compound combination at the stated rate of application. After the spray coating has dried on, the plants are dusted with spores of Erysiphe graminis f.sp. horde. The plants are placed in a greenhouse at a temperature of approximately 20° C. and a relative atmospheric humidity of approximately 80% to promote the development of mildew pustules. The test is evaluated 7 days after the inoculation. Under these conditions, good (at least 70%) to total protection is observed at a dose of 1000 ppm with the following compounds: 104, 160, 177, 178, 186, 192, 194, 203, 204, 205, 207, 210, 212, 213 and 435.

[3] = logP by HPLC on reversed-phase column (C 18), EEC Directive 79/B31 Annex V.A8, methods A and B; type: physicochemical; conditions: linear gradient 10% to 90% acetonitrile; for chromatographic logP: reversed-phase HPLC column (C 18)
Method: Calibration was carried out using unbranched alkan-2-ones (having 3 to 16 carbon atoms) with known logP values (determination of the logP values by the retention times using linear interpolation between two successive alkanones).

[4] = system: Alternaria solani; assay: In vivo test on Alternaria solani (tomato leaf spot), preventive spray; conditions: 168 h, tomato young plants, evaluated 7 days after inoculation, good (at least 70%) to total protection
Method: In Vivo Test on Alternaria Solani (Tomato Leaf Spot) [table] To produce a suitable preparation of active compound, 1 part by weight of active compound is mixed with the stated amounts of solvent and emulsifier, and the concentrate is diluted with water to the desired concentration. Young plants are sprayed with the preparation of active compound at the stated rate of application. After the spray coating has dried on, the plants are inoculated with an aqueous spore suspension of Alternaria solani. The plants remain for one day in an incubation cabinet at approximately 20° C. and a relative atmospheric humidity of 100%. Then the plants are placed in an incubation cabinet at approximately 20° C. and a relative atmospheric humidity of 96%. The test is evaluated 7 days after the inoculation. Under these conditions, good (at least 70%) to total protection is observed at a dose of 500 ppm with the following compounds 110, 143, 160, 175, 176, 178, 179, 180, 186, 187, 189, 192, 196, 198, 203, 204, 205, 209, 210, 212, 214, 215 and 652.

[5] = system: Pyrenophora teres; assay: In vivo test on Pyrenophora teres (barley net blotch); conditions: 288 h, barley plants (Express variety), grading 12 days after contamination, good (at least 70%) or total protection
Method: In Vivo Test on Pyrenophore teres (Barley Net Blotch)
(§1) The active ingredients tested are prepared by homogenisation in a mixture of acetone/tween/DMSO, then diluted with water to obtain the desired active material concentration. Barley plants (Express variety) in starter cups, sown on a 50/50 peat soil-pozzolana substrate and grown at 12° C., are treated at the 1-leaf stage (10 cm tall) by spraying with the active ingredient prepared as described above. Plants, used as controls, are treated with the mixture of acetone/tween/DMSO/water not containing the active material.
After 24 hours, the plants are contaminated by spraying them with an aqueous suspension of Pyrenophora teres spores (12,000 spores per ml). The spores are collected from a 12-day-old culture. The contaminated barley plants are incubated for 24 hours at about 20° C. and at 100% relative humidity, and then for 12 days at 80% relative humidity.

[6] = system: Puccinia recondita; assay: In vivo test on Puccinia recondita f. sp. tritici (wheat brown rust); conditions: 240 h, wheat plants (Scipion variety), grading 10 days after contamination, good (at least 70%) or total protection
Method: In vivo Test on Puccinia reconditef. Sp. tritici (Wheat Brown Rust)
as §1, with “Wheat” for “Barley”, “(Scipion” for “(Express”, “on” for “on a”
After 24 hours, the plants are contaminated by spraying the leaves with an aqueous suspension of Puccinia recondita spores (100,000 spores per ml). The spores are collected from a 10-day-old contaminated wheat and are suspended in water containing 2.5 ml/of tween 80 10%. The contaminated wheat plants are incubated for 24 hours at 20° C. and at 100% relative humidity, and then for 10 days at 20° C. and at 70% relative humidity. Grading is carried out 10 days after the contamination, in comparison with the control plants.

[7] = system: Mycosphaerella graminicola; assay: In vivo test on Mycosphaerella graminicola (wheat leaf spot); conditions: Zymoseptoria tritici, wheat plants (Scipion variety), grading 21 to 28 days after contamination, good (at least 70%) or total protection, read-out: protection (% of efficacy)
Method: In vivo Test on Mycosphaerella graminicola (Wheat Leaf Spot)
The active ingredients tested are prepared by homogenisation in a mixture of acetone/tween/DMSO, and then diluted with water to obtain the desired active material concentration.
Wheat plants (Scipion variety), sown on a 50/50 peat soil-pozzolana substrate in starter cups and grown at 12° C., are treated at the 1-leaf stage (10 cm tall) by spraying with the active ingredient prepared as described above.
Plants, used as controls, are treated with the mixture of acetone/tween/DMSO/water not containing the active material.
After 24 hours, the plants are contaminated by spraying them with an aqueous suspension of Mycosphaerella graminicola spores (500 000 spores per ml). The spores are collected from a 7-day-old culture. The contaminated wheat plants are incubated for 72 hours at 18° C. and at 100% relative humidity, and then for 21 to 28 days at 90% relative humidity.
Grading (% of efficacy) is carried out 21 to 28 days after the contamination, in comparison with the control plants.

[8] = HPLC reversed-phase C 18, method A: 43° C., 0.1% aqueous phosphoric acid, acetonitrile
[9] = LogP method A: HPLC reversed-phase C 18, 43° C., 0.1% aqueous phosphoric acid / acetonitrile

chromatographic logP [3, 8]	Structure (SMILES)	pest or weed control at 100 ppm [1] [%]	pest or weed control at 1000 ppm [2] [%]	pest or weed control at 500 ppm [4] [%]	other results
3.19	Cc1nn(C)c(F)c1C(=O)N(C1CC1)S(=O)(=O)c1ccc(C(F)(F)F)cc1O [Compound 213]	≥ 70	≥ 70	–	–
3.39	Cc1nn(C)c(F)c1C(=O)N(C1CC1)S(=O)(=O)c1ccc(-c2ccccc2)cc1 [Compound 209]	≥ 70	–	≥ 70	–
2.17	Cc1nn(C)c(C)c1C(=O)N(C1CC1)S(=O)(=O)c1ccccc1O [Compound 215]	–	–	≥ 70	–

More lines, now with the values behind:

Structure (SMILES)	chromatographic logP [3, 8]	pest or weed control at 100 ppm [1] [%]	pest or weed control at 1000 ppm [2] [%]	pest or weed control at 500 ppm [4] [%]	other results
Cc1nn(C)c(F)c1C(=O)N(C1CC1)S(=O)(=O)c1ccccc1OC(F)(F)F [Compound 203]	2.75	≥ 70	≥ 70	≥ 70	–
Cc1nn(C)cc1C(=O)N(C1CC1)S(=O)(=O)c1ccccc1O [Compound 214]	–	–	–	≥ 70	LogP [3, 8]: 2.31
COc1nn(C)cc1C(=O)N(C1CC1)S(=O)(=O)c1ccc(Oc2ccccc2)cc1 [Compound 143]	–	–	–	≥ 70	–
Cc1nn(C)c(F)c1C(=O)N(C1CC1)S(=O)(=O)c1ccc(O)cc1O [Compound 186]	2.94	≥ 70	≥ 70	≥ 70	–
Cc1nn(C)c(F)c1C(=O)N(C1CC1)S(=O)(=O)c1ccc(O)c(C(F)(F)F)c1 [Compound 194]	3.5	≥ 70	≥ 70	–	–
Cc1nn(C)c(F)c1C(=O)N(C1CC1)S(=O)(=O)c1ccc(C(C)(C)C)cc1 [Compound 192]	3.55	≥ 70	≥ 70	≥ 70	–
Cc1nn(C)c(F)c1C(=O)N(C1CC1)S(=O)(=O)c1cccc(O)c1 [Compound 176]	2.82	≥ 70	–	≥ 70	–
Cn1nc(C(F)F)c(C(=O)N(C2CC2)S(=O)(=O)c2cccc(O)c2O)c1F [Compound 104]	–	≥ 70	≥ 70	–	pest or weed control at 500 ppm [5]: ≥ 70%; chromatographic logP ([3]; HPLC reversed-phase C 18, method B: 40° C., 0.1% aqueous formic acid and acetonitrile): 3.2; pest or weed control at 500 ppm [6]: ≥ 70%
CC1=C(C(=O)N(C2CC2)S(=O)(=O)c2ccccc2O)OCCS1 [Compound 652]	–	–	–	≥ 70	chromatographic logP [3, 9]: 2.78
Cc1nn(C)c(F)c1C(=O)N(C1CC1)S(=O)(=O)c1ccccc1C(F)(F)F [Compound 207]	2.6	≥ 70	≥ 70	–	–
Cc1nn(C)c(F)c1C(=O)N(C1CC1)S(=O)(=O)c1cc(O)sc1O [Compound 435]	–	–	≥ 70	–	chromatographic logP [3, 9]: 3.16
Cc1ccccc1S(=O)(=O)N(C(=O)c1c(C)nn(C)c1F)C1CC1 [Compound 196]	2.43	≥ 70	–	≥ 70	–
Cc1ccc(C)c(S(=O)(=O)N(C(=O)c2c(C)nn(C)c2F)C2CC2)c1 [Compound 198]	2.78	≥ 70	–	≥ 70	–
Cc1nn(C)c(F)c1C(=O)N(C1CC1)S(=O)(=O)c1ccc(F)cc1 [Compound 179]	2.46	–	–	≥ 70	–
Cc1nn(C)c(F)c1C(=O)N(C1CC1)S(=O)(=O)c1cccc(C(F)(F)F)c1 [Compound 177]	3.03	≥ 70	≥ 70	–	–
Cc1nn(C)c(F)c1C(=O)N(C1CC1)S(=O)(=O)c1ccc(Oc2ccccc2)cc1 [Compound 187]	3.42	≥ 70	–	≥ 70	–
Cc1nn(C)c(F)c1C(=O)N(C1CC1)S(=O)(=O)c1ccccc1O [Compound 180]	2.34	≥ 70	–	≥ 70	pest or weed control at 500 ppm [5]: ≥ 70%
Cc1nn(C)c(F)c1C(=O)N(C1CC1)S(=O)(=O)c1ccc(O)c(O)c1 [Compound 178]	3.35	–	≥ 70	≥ 70	–
CCOc1nn(C)cc1C(=O)N(C1CC1)S(=O)(=O)c1ccc(Oc2ccc(C)cc2)c(O)c1 [Compound 542]	–	–	–	–	pest or weed control at 500 ppm [5]: ≥ 70%; pest or weed control at 500 ppm [7]: ≥ 70%; chromatographic logP ([3]; LogP method B: HPLC reversed-phase C 18, 40° C., 0.1% aqueous formic acid / acetonitrile): 4.3; pest or weed control at 500 ppm [6]: ≥ 70%
Cc1cccc(S(=O)(=O)N(C(=O)c2c(C)nn(C)c2F)C2CC2)c1 [Compound 175]	2.61	–	–	≥ 70	–
Cc1cc(C)c(S(=O)(=O)N(C(=O)c2c(C)nn(C)c2F)C2CC2)c(C)c1 [Compound 189]	3.05	–	–	≥ 70	–
